The test deals with TPM3-NTRK1-wt IC50 / primary target (e.g. CD74-ROS1-wt) IC50, Ba/F3 cells. Nature of the test: Cell assay TRKA selectivity (TRKA potency divided by primary target potency). Particulars: for TPM3-NTRK1-wt/CD74-ROS1-G2032R: TRKA selectivity ratio: TPM3-NTRK1-wt IC50 / CD74-ROS1-G2032R IC50, Ba/F3 cells; for TPM3-NTRK1-wt/CD74-ROS1-wt: TRKA selectivity ratio: TPM3-NTRK1-wt IC50 / CD74-ROS1-wt IC50, Ba/F3 cells; for TPM3-NTRK1-wt/EML4-ALK-L1196M-G1202R: TRKA selectivity ratio: TPM3-NTRK1-wt IC50 / EML4-ALK-L1196M-G1202R IC50, Ba/F3 cells; for TPM3-NTRK1-wt/EML4-ALK-wt: TRKA selectivity ratio: TPM3-NTRK1-wt IC50 / EML4-ALK-wt IC50, Ba/F3 cells. Format: cell-based. From the text: Genes encoding CD74-ROS1 wild-type (wt), CD74-ROS1 G2032R, CD74-ROS1 S1986F, CD74-ROS1 L2026M, CD74-ROS1 D2033N, EML4-ALK wt (variant 1), EML4-ALK G1202R (variant 1), EML4-ALK L1196M/G1202R (variant 1), EML4-ALK G1202R/G1269A (variant 1), EML4-ALK G1202R/L1198F (variant 1), and TPM3-TRKA were synthesized at GeneRay, cloned into the retroviral construct pMSCV-puro (Biovector), and packaged into retroviral particles. The virus was used to infect Ba/F3 cells (RIKEN) at multiplicity of infection=1 for 1 day. Infected cells were rescued in media (RPMI-1640 with 10% fetal bovine serum and 1% streptomycin and penicillin) supplemented with mouse IL-3 (10 ng/mL) for 2 days, and stable cell lines were selected by IL-3 withdrawal and puromycin (0.8 μg/mL) for 7 days. Monoclones were selected by single-cell dilution in IL-3-free medium containing puromycin (0.8 μg/mL). Transformation of desired genes was confirmed by Sanger sequencing and western blot using the following antibodies: ROS1 (CST #3287), ALK (CST #3633), and pan-TRK (Abcam #76291).
Stable cells were plated at 1,000 cells/well (40 μL) in a 384-well plate for 1 day. Test compounds (40 nL) were then added in a 3-fold dilution series using the TECAN EVO200 liquid handler and incubated for 72 hours. Plates were equilibrated at room temperature for 15 minutes followed by addition of 40 μL CellTiter-Glo reagent (Promega). Luminescence was measured on a plate reader. Half-maximal inhibitory concentration (IC50) was calculated from percent inhibition and inhibitor concentration using four-parameter logistic regression. […] Exemplary data is given in Table 4 (nd is not determined).
TRKA selectivity was calculated by dividing a compound's TRKA potency by its primary target potency (e.g. TPM3-NTRK1-wt IC50/CD74-ROS1-wt IC50). Compound selectivity can be interpreted by binning ratio values: bin A for very high selectivity, ratio>30-fold; bin B for high selectivity, ratio>10-fold; bin C for moderate selectivity, ratio≥1; and bin D for low selectivity, ratio<1. […] (nd=not determined).

Consider `C[C@H]1Oc2cc(cnc2N)-c2c(C#N)nnn2Cc2cn(C)nc2-c2ccc(F)cc21` [Example 24, (19R)-22-amino-16-fluoro-10,19-dimethyl-20-oxa-4,5,6,10,11,23-hexaazapentacyclo[19.3.1.0^2,^6.0^8,^12.0^13,^18]pentacosa-1(24),2,4,8,11,13,15,17,21(25),22-decaene-3-carbonitrile], for which the TPM3-NTRK1-wt/CD74-ROS1-G2032R entry is “A (bin A for very high selectivity, ratio>30-fold)”; the TPM3-NTRK1-wt/CD74-ROS1-wt result is “A (bin A for very high selectivity, ratio>30-fold)”; the TPM3-NTRK1-wt/EML4-ALK-L1196M-G1202R entry was “C (bin C for moderate selectivity, ratio≥1)”; the TPM3-NTRK1-wt/EML4-ALK-wt entry is “A (bin A for very high selectivity, ratio>30-fold)”.

Consider `C[C@H]1Oc2cc(cnc2N)-c2c(C#N)nnn2Cc2cccnc2-c2ccc(F)cc21` [Example 25, (20R)-23-amino-17-fluoro-20-methyl-21-oxa-4,5,6,12,24-pentaazapentacyclo[20.3.1.0^2,^6.0^8,^13.0^14,^19]hexacosa-1(25),2,4,8(13),9,11,14,16,18,22(26),23-undecaene-3-carbonitrile], for which the TPM3-NTRK1-wt/CD74-ROS1-G2032R entry was “A (bin A for very high selectivity, ratio>30-fold)”; the TPM3-NTRK1-wt/CD74-ROS1-wt entry was “A (bin A for very high selectivity, ratio>30-fold)”; the TPM3-NTRK1-wt/EML4-ALK-L1196M-G1202R result was “B (bin B for high selectivity, ratio>10-fold)”; the TPM3-NTRK1-wt/EML4-ALK-wt entry is recorded as “A (bin A for very high selectivity, ratio>30-fold)”.

For `C[C@H]1Oc2cc(cnc2N)-c2c(C3CCC3)noc2Cc2cn(C)nc2-c2ccc(F)cc21` [Example 26, (19R)-3-cyclobutyl-16-fluoro-10,19-dimethyl-5,20-dioxa-4,10,11,23-tetraazapentacyclo[19.3.1.0^2,^6.0^8,^12.0^13,^18]pentacosa-1(24),2(6),3,8,11,13,15,17,21(25),22-decaen-22-amine], the TPM3-NTRK1-wt/CD74-ROS1-G2032R entry is on record as “A (bin A for very high selectivity, ratio>30-fold)”; the TPM3-NTRK1-wt/CD74-ROS1-wt entry is listed as “A (bin A for very high selectivity, ratio>30-fold)”; the TPM3-NTRK1-wt/EML4-ALK-L1196M-G1202R result was “B (bin B for high selectivity, ratio>10-fold)”; the TPM3-NTRK1-wt/EML4-ALK-wt result is recorded as “A (bin A for very high selectivity, ratio>30-fold)”.

With `C[C@H]1Oc2cc(cnc2N)-c2c(cnn2CC(F)(F)F)Cc2cn(C)nc2-c2ccc(F)cc21` [Example 27, (19R)-16-fluoro-10,19-dimethyl-3-(2,2,2-trifluoroethyl)-20-oxa-3,4,10,11,23-pentaazapentacyclo[19.3.1.0^2,^6.0^8,^12.0^13,^18]pentacosa-1(24),2(6),4,8,11,13,15,17,21(25),22-decaen-22-amine], the TPM3-NTRK1-wt/CD74-ROS1-G2032R result is recorded as “A (bin A for very high selectivity, ratio>30-fold)”; the TPM3-NTRK1-wt/CD74-ROS1-wt result is “A (bin A for very high selectivity, ratio>30-fold)”; the TPM3-NTRK1-wt/EML4-ALK-L1196M-G1202R entry is given as “A (bin A for very high selectivity, ratio>30-fold)”; the TPM3-NTRK1-wt/EML4-ALK-wt entry is “A (bin A for very high selectivity, ratio>30-fold)”.

For `CCn1ncc2c1-c1cnc(N)c(c1)O[C@H](C)c1cc(F)ccc1-c1nn(C)c(Cl)c1C2` [Example 28, (19R)-9-chloro-3-ethyl-16-fluoro-10,19-dimethyl-20-oxa-3,4,10,11,23-pentaazapentacyclo[19.3.1.0^2,^6.0^8,^12.0^13,^18]pentacosa-1(24),2(6),4,8,11,13,15,17,21(25),22-decaen-22-amine], the TPM3-NTRK1-wt/CD74-ROS1-G2032R result is on record as “A (bin A for very high selectivity, ratio>30-fold)”; the TPM3-NTRK1-wt/CD74-ROS1-wt entry was “A (bin A for very high selectivity, ratio>30-fold)”; the TPM3-NTRK1-wt/EML4-ALK-L1196M-G1202R result was “C (bin C for moderate selectivity, ratio≥1)”; the TPM3-NTRK1-wt/EML4-ALK-wt result is given as “A (bin A for very high selectivity, ratio>30-fold)”.

For `C[C@H]1Oc2cc(cnc2N)-c2c(nnn2CC2CC2)Cc2cn(C)nc2-c2ccc(F)cc21` [Example 29, (19R)-3-(cyclopropylmethyl)-16-fluoro-10,19-dimethyl-20-oxa-3,4,5,10,11,23-hexaazapentacyclo[19.3.1.0^2,^6.0^8,^12.0^13,^18]pentacosa-1(24),2(6),4,8,11,13,15,17,21(25),22-decaen-22-amine], the TPM3-NTRK1-wt/CD74-ROS1-G2032R result is reported as “A (bin A for very high selectivity, ratio>30-fold)”; the TPM3-NTRK1-wt/CD74-ROS1-wt entry is “A (bin A for very high selectivity, ratio>30-fold)”; the TPM3-NTRK1-wt/EML4-ALK-L1196M-G1202R entry was “A (bin A for very high selectivity, ratio>30-fold)”; the TPM3-NTRK1-wt/EML4-ALK-wt entry is “A (bin A for very high selectivity, ratio>30-fold)”.

As to `CCc1noc2c1-c1cnc(N)c(c1)OCc1cc(F)ccc1-c1nn(C)cc1C2` [Example 30, 3-ethyl-16-fluoro-10-methyl-5,20-dioxa-4,10,11,23-tetraazapentacyclo[19.3.1.0^2,^6.0^8,^12.0^13,^18]pentacosa-1(24),2(6),3,8,11,13,15,17,21(25),22-decaen-22-amine], the TPM3-NTRK1-wt/CD74-ROS1-G2032R result is “A (bin A for very high selectivity, ratio>30-fold)”; the TPM3-NTRK1-wt/CD74-ROS1-wt entry is given as “A (bin A for very high selectivity, ratio>30-fold)”; the TPM3-NTRK1-wt/EML4-ALK-L1196M-G1202R entry was “C (bin C for moderate selectivity, ratio≥1)”; the TPM3-NTRK1-wt/EML4-ALK-wt result is listed as “A (bin A for very high selectivity, ratio>30-fold)”.

Consider `CCn1ncc2c1-c1cnc(N)c(c1)O[C@H](C)c1cc(F)ccc1-c1nccn1C2` [Example 31, (19R)-3-ethyl-16-fluoro-19-methyl-20-oxa-3,4,8,11,23-pentaazapentacyclo[19.3.1.0^2,^6.0^8,^12.0^13,^18]pentacosa-1(24),2(6),4,9,11,13,15,17,21(25),22-decaen-22-amine], for which the TPM3-NTRK1-wt/CD74-ROS1-G2032R entry is recorded as “A (bin A for very high selectivity, ratio>30-fold)”; the TPM3-NTRK1-wt/CD74-ROS1-wt result is recorded as “A (bin A for very high selectivity, ratio>30-fold)”; the TPM3-NTRK1-wt/EML4-ALK-L1196M-G1202R entry is “C (bin C for moderate selectivity, ratio≥1)”; the TPM3-NTRK1-wt/EML4-ALK-wt entry was “A (bin A for very high selectivity, ratio>30-fold)”.

Consider `CCn1ncc2c1-c1cnc(N)c(c1)O[C@H](C)c1cc(F)ccc1-c1c(cnn1C)C2` [Example 32, (19R)-3-ethyl-16-fluoro-11,19-dimethyl-20-oxa-3,4,10,11,23-pentaazapentacyclo[19.3.1.0^2,^6.0^8,^12.0^13,^18]pentacosa-1(24),2(6),4,8(12),9,13,15,17,21(25),22-decaen-22-amine], for which the TPM3-NTRK1-wt/CD74-ROS1-G2032R entry is “A (bin A for very high selectivity, ratio>30-fold)”; the TPM3-NTRK1-wt/CD74-ROS1-wt result is recorded as “A (bin A for very high selectivity, ratio>30-fold)”; the TPM3-NTRK1-wt/EML4-ALK-L1196M-G1202R result is given as “C (bin C for moderate selectivity, ratio≥1)”; the TPM3-NTRK1-wt/EML4-ALK-wt result is reported as “B (bin B for high selectivity, ratio>10-fold)”.

For `CCn1ncc2c1-c1cnc(N)c(c1)O[C@H](C)c1cc(F)ccc1-n1nccc1C2` [Example 33, (19R)-3-ethyl-16-fluoro-19-methyl-20-oxa-3,4,11,12,23-pentaazapentacyclo[19.3.1.0^2,^6.0^8,^12.0^13,^18]pentacosa-1(24),2(6),4,8,10,13,15,17,21(25),22-decaen-22-amine], the TPM3-NTRK1-wt/CD74-ROS1-G2032R entry is on record as “A (bin A for very high selectivity, ratio>30-fold)”; the TPM3-NTRK1-wt/CD74-ROS1-wt result was “A (bin A for very high selectivity, ratio>30-fold)”; the TPM3-NTRK1-wt/EML4-ALK-L1196M-G1202R entry is reported as “B (bin B for high selectivity, ratio>10-fold)”; the TPM3-NTRK1-wt/EML4-ALK-wt result was “A (bin A for very high selectivity, ratio>30-fold)”.

Take `CCn1ncc2c1-c1cnc(N)c(c1)OCc1cc(F)ccc1-c1nccn1C2` [Example 34, 3-ethyl-16-fluoro-20-oxa-3,4,8,11,23-pentaazapentacyclo[19.3.1.0^2,^6.0^8,^12.0^13,^18]pentacosa-1(24),2(6),4,9,11,13,15,17,21(25),22-decaen-22-amine]: the TPM3-NTRK1-wt/CD74-ROS1-G2032R result is “A (bin A for very high selectivity, ratio>30-fold)”; the TPM3-NTRK1-wt/CD74-ROS1-wt result is on record as “A (bin A for very high selectivity, ratio>30-fold)”; the TPM3-NTRK1-wt/EML4-ALK-L1196M-G1202R result is given as “B (bin B for high selectivity, ratio>10-fold)”; the TPM3-NTRK1-wt/EML4-ALK-wt result is reported as “A (bin A for very high selectivity, ratio>30-fold)”.

The values are drawn from US11667649B2, “Heteroaromatic macrocyclic ether chemotherapeutic agents” (Nuvalent, Inc., priority 2020, dated 2023).
